Measurements reported in ChEMBL document CHEMBL1201862, “PubChem BioAssay data set” (2004).
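Cultured in 96-well plates, cells were exposed to test compound for 48 hours across five concentrations. GI50 = concentration required for 50% inhibition of growth.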 Activity calls are given as the source filed them. No stated cut-off is given here; in the data, active = GI50 up to about 1.1 µM and inactive = higher.

What was measured:
Experiment in all cases: NCI anticancer screen, dose series, 48 h
M14 = system: M14
RPMI-8226 = system: RPMI-8226
CCRF-CEM = system: CCRF-CEM
OVCAR-4 = system: OVCAR-4
NCI-H23 = system: NCI-H23
HOP-18 = system: HOP-18
EKVX = system: EKVX
A549 = system: A549
KM12 = system: KM12
HCC 2998 = system: HCC 2998
UO-31 = system: UO-31
DMS-273 = system: DMS-273
SK-MEL-2 = system: SK-MEL-2
HL-60 = system: HL-60
A498 = system: A498
SF-295 = system: SF-295
K562 = system: K562
OVCAR-3 = system: OVCAR-3
MOLT-4 = system: MOLT-4
SN12C = system: SN12C
SR = system: SR
U-251 = system: U-251
HCT-15 = system: HCT-15
HOP-92 = system: HOP-92
COLO 205 = system: COLO 205
SNB-78 = system: SNB-78
SK-MEL-28 = system: SK-MEL-28
SF-539 = system: SF-539
NCI-H460 = system: NCI-H460
HCT-116 = system: HCT-116
SNB-75 = system: SNB-75
CAKI-1 = system: CAKI-1
KM-20L2 = system: KM-20L2
HT-29 = system: HT-29
SW-620 = system: SW-620
HOP-62 = system: HOP-62
M19-MEL = system: M19-MEL
IGROV-1 = system: IGROV-1
UACC-62 = system: UACC-62
OVCAR-8 = system: OVCAR-8
ACHN = system: ACHN
UACC-257 = system: UACC-257
SK-OV-3 = system: SK-OV-3
XF498 = system: XF498
RXF 393 = system: RXF 393
LXFL 529 = system: LXFL 529
DLD-1 = system: DLD-1
SNB-19 = system: SNB-19
DMS-114 = system: DMS-114
RXF 631 = system: RXF 631
786-0 = system: 786-0
TK-10 = system: TK-10
MDA-N = system: MDA-N
NCI-H522 = system: NCI-H522
Malme-3M = system: Malme-3M
LOX IMVI = system: LOX IMVI
MDA-MB-435 = system: MDA-MB-435
DU-145 = system: DU-145
NCI-H226 = system: NCI-H226
NCI/ADR-RES = system: NCI/ADR-RES
Hs-578T = system: Hs-578T
PC-3 = system: PC-3
MCF7 = system: MCF7
T47D = system: T47D
OVCAR-5 = system: OVCAR-5
MDA-MB-231 = system: MDA-MB-231
SF-268 = system: SF-268
SK-MEL-5 = system: SK-MEL-5
BT-549 = system: BT-549

COc1c(CC(=O)c2ccccc2)c2ccccc2n1C(C)=O
GI50 (M14): > 100 µM (inactive)
GI50 (RPMI-8226): > 100 µM (inactive)
GI50 (CCRF-CEM): > 100 µM (inactive)
GI50 (OVCAR-4): > 100 µM (inactive)
GI50 (NCI-H23): 58.7 µM (inactive)
GI50 (HOP-18): > 100 µM (inactive)
GI50 (EKVX): 35.6 µM (inactive)
GI50 (A549): > 100 µM (inactive)
GI50 (KM12): > 100 µM (inactive)
GI50 (HCC 2998): > 100 µM (inactive)
GI50 (UO-31): 56.8 µM (inactive)
GI50 (DMS-273): > 100 µM (inactive)
GI50 (SK-MEL-2): > 100 µM (inactive)
GI50 (HL-60): > 100 µM (inactive)
GI50 (A498): > 100 µM (inactive)
GI50 (SF-295): 72.9 µM (inactive)
GI50 (K562): > 100 µM (inactive)
GI50 (OVCAR-3): > 100 µM (inactive)
GI50 (MOLT-4): > 100 µM (inactive)
GI50 (SN12C): > 100 µM (inactive)
GI50 (SR): > 100 µM (inactive)
GI50 (U-251): > 100 µM (inactive)
GI50 (HCT-15): > 100 µM
GI50 (HOP-92): > 100 µM (inactive)
GI50 (COLO 205): > 100 µM (inactive)
GI50 (SNB-78): > 100 µM (inactive)
GI50 (SK-MEL-28): > 100 µM (inactive)
GI50 (SF-539): > 100 µM (inactive)
GI50 (NCI-H460): > 100 µM (inactive)
GI50 (HCT-116): > 100 µM (inactive)
GI50 (SNB-75): > 100 µM (inactive)
GI50 (CAKI-1): > 100 µM (inactive)
GI50 (KM-20L2): > 100 µM (inactive)
GI50 (HT-29): > 100 µM (inactive)
GI50 (SW-620): > 100 µM (inactive)
GI50 (HOP-62): > 100 µM (inactive)
GI50 (M19-MEL): > 100 µM (inactive)
GI50 (IGROV-1): > 100 µM (inactive)
GI50 (UACC-62): > 100 µM (inactive)
GI50 (OVCAR-8): 91 µM (inactive)
GI50 (ACHN): > 100 µM (inactive)
GI50 (UACC-257): > 100 µM (inactive)
GI50 (SK-OV-3): > 100 µM (inactive)
GI50 (XF498): > 100 µM (inactive)
GI50 (RXF 393): 34.5 µM (inactive)
GI50 (LXFL 529): > 100 µM (inactive)
GI50 (DLD-1): > 100 µM (inactive)
GI50 (SNB-19): > 100 µM (inactive)
GI50 (DMS-114): > 100 µM (inactive)
GI50 (RXF 631): > 100 µM (inactive)
GI50 (786-0): 29.9 µM (inactive)

COc1ccc2nc3cc(Cl)ccc3c(Nc3ccccc3-c3ccccc3Nc3c4ccc(Cl)cc4nc4ccc(OC)cc34)c2c1
GI50 (M14): 43.6 µM (inactive)
GI50 (RPMI-8226): 8.17 µM (inactive)
GI50 (TK-10): 64.1 µM (inactive)
GI50 (CCRF-CEM): 4.52 µM (inactive)
GI50 (OVCAR-4): 17.4 µM (inactive)
GI50 (NCI-H23): 21.7 µM (inactive)
GI50 (HOP-18): > 100 µM (inactive)
GI50 (EKVX): 52 µM (inactive)
GI50 (A549): 45.2 µM (inactive)
GI50 (KM12): 22.7 µM (inactive)
GI50 (HCC 2998): 31.6 µM (inactive)
GI50 (UO-31): 26.9 µM (inactive)
GI50 (MDA-N): 3.43 µM (inactive)
GI50 (DMS-273): 20.4 µM (inactive)
GI50 (SK-MEL-2): 34.2 µM (inactive)
GI50 (HL-60): 2.66 µM (inactive)
GI50 (A498): > 56.5 µM (inactive)
GI50 (SF-295): 33 µM (inactive)
GI50 (K562): 4.63 µM (inactive)
GI50 (NCI-H522): 8.43 µM (inactive)
GI50 (OVCAR-3): 45.4 µM (inactive)
GI50 (MOLT-4): 3.13 µM (inactive)
GI50 (Malme-3M): 35.2 µM (inactive)
GI50 (SN12C): 32.2 µM (inactive)
GI50 (SR): 3.5 µM (inactive)
GI50 (U-251): 37.3 µM (inactive)
GI50 (HCT-15): 14.3 µM
GI50 (HOP-92): 31.8 µM (inactive)
GI50 (LOX IMVI): 18.2 µM (inactive)
GI50 (COLO 205): 32.6 µM (inactive)
GI50 (MDA-MB-435): 8.32 µM (inactive)
GI50 (SNB-78): > 100 µM (inactive)
GI50 (SK-MEL-28): 41.8 µM (inactive)
GI50 (SF-539): 24.2 µM (inactive)
GI50 (NCI-H460): 33.6 µM (inactive)
GI50 (HCT-116): 11.7 µM (inactive)
GI50 (DU-145): 69.3 µM (inactive)
GI50 (NCI-H226): > 41.1 µM (inactive)
GI50 (NCI/ADR-RES): 13.6 µM (inactive)
GI50 (SNB-75): 14.7 µM (inactive)
GI50 (Hs-578T): 27.7 µM (inactive)
GI50 (PC-3): 11.3 µM (inactive)
GI50 (CAKI-1): 21.3 µM (inactive)
GI50 (KM-20L2): 19.9 µM (inactive)
GI50 (MCF7): 40.8 µM (inactive)
GI50 (HT-29): 10.5 µM (inactive)
GI50 (SW-620): 15.4 µM (inactive)
GI50 (HOP-62): 55.7 µM (inactive)
GI50 (M19-MEL): > 34.7 µM (inactive)
GI50 (IGROV-1): 45.7 µM (inactive)
GI50 (UACC-62): 27.5 µM (inactive)
GI50 (T47D): 13.1 µM (inactive)
GI50 (OVCAR-8): 28.5 µM (inactive)
GI50 (ACHN): > 29.4 µM (inactive)
GI50 (OVCAR-5): 37.8 µM (inactive)
GI50 (UACC-257): 27.5 µM (inactive)
GI50 (SK-OV-3): > 75.7 µM (inactive)
GI50 (XF498): > 39.4 µM (inactive)
GI50 (MDA-MB-231): 26.9 µM (inactive)
GI50 (RXF 393): 14.9 µM (inactive)
GI50 (LXFL 529): 17.1 µM (inactive)
GI50 (SF-268): 31.9 µM (inactive)
GI50 (SNB-19): 40.4 µM (inactive)
GI50 (RXF 631): > 34.8 µM (inactive)
GI50 (SK-MEL-5): 18.1 µM (inactive)
GI50 (786-0): 26.7 µM (inactive)
GI50 (BT-549): 15.9 µM (inactive)

OC1CC1Sc1ccccc1 (stereo not drawn)
GI50 (M14): 36.6 µM (inactive)
GI50 (RPMI-8226): 30.5 µM (inactive)
GI50 (TK-10): 59.7 µM (inactive)
GI50 (CCRF-CEM): 15.1 µM (inactive)
GI50 (OVCAR-4): 30.5 µM (inactive)
GI50 (NCI-H23): 35.6 µM (inactive)
GI50 (EKVX): 70.1 µM (inactive)
GI50 (A549): 34.6 µM (inactive)
GI50 (KM12): 34 µM (inactive)
GI50 (HCC 2998): 35 µM (inactive)
GI50 (UO-31): 10.1 µM (inactive)
GI50 (DMS-273): 33 µM (inactive)
GI50 (SK-MEL-2): 38.1 µM (inactive)
GI50 (HL-60): 14.2 µM (inactive)
GI50 (A498): 71.8 µM (inactive)
GI50 (SF-295): 24.5 µM (inactive)
GI50 (K562): 33.9 µM (inactive)
GI50 (NCI-H522): 17.6 µM (inactive)
GI50 (OVCAR-3): 25.4 µM (inactive)
GI50 (MOLT-4): 21.1 µM (inactive)
GI50 (Malme-3M): 95.1 µM (inactive)
GI50 (SN12C): 24 µM (inactive)
GI50 (U-251): 31.6 µM (inactive)
GI50 (HCT-15): 36.7 µM
GI50 (HOP-92): 29.6 µM (inactive)
GI50 (LOX IMVI): 28 µM (inactive)
GI50 (COLO 205): 40.7 µM (inactive)
GI50 (SNB-78): 26.9 µM (inactive)
GI50 (SK-MEL-28): 22.1 µM (inactive)
GI50 (SF-539): 22 µM (inactive)
GI50 (NCI-H460): 65.2 µM (inactive)
GI50 (HCT-116): 22.5 µM (inactive)
GI50 (SNB-75): 26.7 µM (inactive)
GI50 (CAKI-1): 73.3 µM (inactive)
GI50 (HT-29): 27.2 µM (inactive)
GI50 (SW-620): 25.8 µM (inactive)
GI50 (HOP-62): 43 µM (inactive)
GI50 (M19-MEL): 32.9 µM (inactive)
GI50 (IGROV-1): 23.7 µM (inactive)
GI50 (UACC-62): 33.3 µM (inactive)
GI50 (OVCAR-8): 28.4 µM (inactive)
GI50 (ACHN): 43.5 µM (inactive)
GI50 (OVCAR-5): 95.3 µM (inactive)
GI50 (UACC-257): 52.5 µM (inactive)
GI50 (SK-OV-3): 80.4 µM (inactive)
GI50 (XF498): 79.8 µM (inactive)
GI50 (RXF 393): 25.2 µM (inactive)
GI50 (LXFL 529): 22.8 µM (inactive)
GI50 (SF-268): 18.6 µM (inactive)
GI50 (DLD-1): 29.8 µM (inactive)
GI50 (SNB-19): 33.9 µM (inactive)
GI50 (DMS-114): 24.7 µM (inactive)
GI50 (RXF 631): 39.9 µM (inactive)
GI50 (SK-MEL-5): 31.6 µM (inactive)
GI50 (786-0): 21 µM (inactive)
